Consider one compound from patent US20140011755A1, “Cardiac Glycosides for Treating Autoimmune Disease” (Department of Veterans Affairs, priority 2010, published 2014).

Data set [1] in a line: Serum concentration obtained with experimental dosing regimen, mouse. Format: in vivo. Particulars: 0.3 mg/kg per diem, i.p., experimentally determined. How it is done:
Dosing regimens in humans vary according to the cardiac glycoside and constitution thereof. Table 3 depicts representative dosing regimens reported in the literature compared to experimental regiments used in mice that are representative of human dosing. Successful dosing detailed in this application includes but is not limited to 0.03-0.4 mg/kg., or from 0.001 to 5 mg/kg.

Data set [2] deals with collagen-induced arthritis (CIA). Format: in vivo, DBA1/J mice.
For data set [3], the system named is TNF, IL-6 and IL-1beta. Put plainly: Serum cytokine ELISA in CIA treatment groups. Format: in vivo. The following applies: serum from 3 mice per treatment group, ELISA in triplicate. The text has this: FIG. 9. Serum cytokine levels are similar between vehicle and cardiac glycoside treatment groups. […] The unpaired student t-test was used to assess significance.

The test system of data set [4] is TNF-mediated NFκB activity in HeLa cells. Description: NFκB luciferase reporter assay in TNF-stimulated HeLa cells. Format: cell-based. The following applies: pre-treatment 6 hours with 0-500 nM, 50 ng/mL TNF. The protocol: FIG. 8. […] Values represent mean light units produced. Error bars represent SEM, and statistical significance was determined by unpaired T-test. Single and double asterisks represent P-values of 0.01 or 0.001, respectively. […] Samples were harvested at designated time points and were fractionated into nuclear and cytoplasmic lysates (Pierce). Lysates were quantified using BCA (Pierce), and were equally loaded according to total protein. Membranes were probed for levels of nuclear phospho-p65 (ReIA), phospho-ReIB, and histone (histone served as loading control and fractionation method control) and cytoplasmic degradation of IκBα (beta-tubulin served as loading control and fractionation method control).
HeLa cells were co-transfected with the reporter pNFκB-luc and control vector pTAL (Renilla) for 18 h prior to incubation with 0-500 nM cardiac glycoside for 6 h. Cells are stimulated with 50 ng/mL TNF. […] FIG. 8 B).

Data set [5] concerns splenocytes derived from mice with CIA. Put plainly: CIA splenocyte proliferation (3H-thymidine incorporation). Format: cell-based. How it is done: (§1) Activity was monitored by ^3H-thymidine incorporation as a read-out for proliferation. […] Cell type(s) in the splenocyte population responsive to therapeutic concentrations of cardiac glycoside were determined by identifying the population of cells that responded to a dose-dependent decrease in activity in the presence of stimulant, defined as ligand(s) binding to cognate receptor(s). Activity was analyzed by: ^3H-thymidine or BrdU incorporation to monitor proliferation or by ELISA to monitor cytokine production. Splenic T lymphocytes were isolated by negative selection (MACS, Miltinyi Biotec) and are stimulated with PMA, ConA or through the TCR with anti-CD3/anti-CD28 Dynabeads (Invitrogen) and collagen II (all non-TNFR receptors/pathways). […] Peritoneal and bone marrow-derived macrophages were isolated from CIA mice in the presence of M-CSF growth factor and were stimulated with TNF and CD40 ligand (CD40L). […] Splenic B lymphocytes were isolated by negative selection (MACS, Miltinyi Biotec) and were stimulated with BAFF (BLyS), CD40L or through the BCR with anti-IgM u-chain specific antibodies.

Data set [6] concerns B cell receptor (membrane Ig). Put plainly: B cell receptor mediated B cell proliferation. The class given is cell-based, mice. Particulars: pre-treatment of B cells; anti-IgM stimulation. The protocol: as §1
The test system of data set [7] is naïve CD4+ T cells, Th17 differentiation. Description: Th17 T cell differentiation in co-culture with pre-treated CIA B cells. The class given is cell-based, mice. The following applies: B cells treated 33 nM for 30 minutes, washed, co-culture 72 hr in Th17 differentiation media. How it is done:
FIG. 24. […] At endpoint, IL-17 cytokine levels were quantified by ELISA (R&D Systems). (B) IL-10 cytokine production was also assessed in each sample by ELISA (eBiosciences). Data represent the average of triplicates and error bars represent the SEM. Statistical significance was determined by the students t-test.
It is known that B cells can regulate T cell differentiation and in many states of autoimmune disease, an imbalance of Th1, Th2, and Th17 T cell populations exist. […] We performed studies to determine the regulatory effector function of B cells pre-treated with cardiac glycoside on T cell differentiation. B cells blocked naïve CD4^+ T cell differentiation into Th17 cells when cardiac glycoside was administered to B cells 30 minutes prior to co-culture with T cells (FIG. 24 A). Additionally, the pre-treatment of B cells with cardiac glycoside inhibited Th17 differentiation in a STAT3-dependent manner (FIG. 25A). […] Cardiac glycosides can be administered to patients to induce IL-10 expressing B cells and to modulate T cell differentiation and increase numbers of Tregs which reduce autoimmune disease progression.

Data set [8] deals with naïve CD4+ T cells, regulatory T cells. Description: Mixed lymphocyte study, pre-treated CIA B cells with naïve CD4+ T cells. Format: cell-based, mice. The following applies: B cells treated 33 nM for 1 hr, co-culture 72 hr. The protocol:
(§2) FIG. 25. […] (A) Representative data from mixed lymphocyte studies. […] B cells were washed, replated in complete RPMI supplemented with BAFF (1 ng/mL), anti-CD3 antibody (4 μg/mL) and were added to 5×10^5 naïve CD4^+ T cells purified by MACS. Cells were incubated for 72 hr prior to harvest. IL-6, IL-10, TGFβ and IL-17 cytokine levels were measured by ELISA (R&D Systems, Peprotech, and eBiosciences). Data represent the average absorbance (A450) of triplicates and error bars represent the SEM. […] Cells were fixed in 4% paraformaldehyde for 15 minutes, washed twice with PBS and blocked with FACS buffer. Cells were stained for regulatory T cells using anti-TCRβ, anti-CD4, anti-CD25 and anti-FoxP3 antibodies (Cell Signaling Technologies, R&D Systems, AbCam). FACS was performed on the FACS Aria (Becton-Dickenson). Data represent the average population in 500,000 cells from 4 mice per treatment group. Error bars represent the SEM.
(§3) It is known that B cells can regulate T cell differentiation and in many states of autoimmune disease, an imbalance of Th1, Th2, and Th17 T cell populations exist. […] We performed studies to determine the regulatory effector function of B cells pre-treated with cardiac glycoside on T cell differentiation. […]

Data set [9] concerns regulatory T cells. Put plainly: FACS of regulatory T cells in splenocytes of treated CIA mice. Particulars: 0.3 mg/kg treated CIA mice, 4 mice per group. The class given is in vivo, DBA1/J mice. How it is done:
as §2, §3

The conditions of data set [10]: Human, oral; Smith, TW (1970); cited from earlier work.
For data set [11] the following is noted: oral; cited from earlier work.
[12] abbreviates: daily i.p. from Mean Visual Score of 2, digitoxin 0.3 mg/kg, proscillaridin […], Mann-Whitney.

Molecules are shown by their SMILES. “Also recorded” adds a separate entry of the source. Read-outs that look alike come from different tables or passages of the source. Bounds are passed on as bounds.

Consider `C[C@H]1O[C@@H](O[C@H]2[C@@H](O)C[C@H](O[C@H]3[C@@H](O)C[C@H](O[C@H]4CC[C@@]5(C)[C@H](CC[C@@H]6[C@@H]5CC[C@]5(C)[C@@H](C7=CC(=O)OC7)CC[C@]65O)C4)O[C@@H]3C)O[C@@H]2C)C[C@H](O)[C@@H]1O` [Digitoxin, digitoxin], for which the “Serum conc.” value in [1] was 19 ng/mL. Also, the “disease and inflammation (clinical score, paw thickness), dosing every three days i.p.” value in data set [2] (0.9 mg/kg digitoxin or 0.6 mg/kg ouabain, i.p., days −3, 0, 3, 6, 9, 12 after boost) is “significantly less disease and inflammation”. Moreover, the “onset of collagen arthritis, dosing every three days sublingual” value in [2] (0.9 mg/kg digitoxin or 0.6 mg/kg ouabain, sublingual, days −3, 0, 3, 6, 9, 12 after boost) is “significantly inhibited the onset of collagen arthritis; also recorded: effective in preventing”. Moreover, in data set [2] (setting [12]), the “Mean Paw Thickness, treatment of established arthritis” value is recorded as “statistically significant reductions” and the “Mean Visual Score, treatment of established arthritis” value is reported as “statistically significant reductions”. The “development of CIA (Mean Visual Arthritis Score, Mean Paw Thickness), prevention study” value in data set [2] (daily i.p. from the day prior to induction, digitoxin 0.3 mg/kg, ouabain 0.03 mg/kg, proscillaridin […]) was “prevented the development of CIA”. For the same compound, the “average clinical arthritis scores compared to vehicle, prevention study” value in [2] (mouse, in vivo) was “significantly reduced”. Also, the “prevention and treatment of collagen-induced arthritis (CIA)” value in [2] (murine model for rheumatoid arthritis, summary statement) was “potently prevent and treat”. Further, the “Serum cytokine levels (TNF, IL-6 and IL-1beta) versus vehicle” value in data set [3] is recorded as “similar”. Also, in [4], the “TNF-mediated NFκB activation (luciferase light units)” value is “reduced TNF-mediated NFκB activation in a dose-dependent fashion”. Also, in data set [5], the “proliferation of unstimulated or collagen II-stimulated splenocytes” value is reported as “inhibits the proliferation”. In addition, the “B cell receptor mediated B cell proliferation” value in [6] is reported as “did not inhibit”. Further, in data set [7], the “Th17 cell differentiation (IL-17 by ELISA)” value is on record as “down-regulates Th17 cell differentiation”. In addition, in data set [8], the “induction of regulatory T cells in vitro” value is given as “induce regulatory T cells”. Moreover, in [9], the “induction of regulatory T cells in vivo” value was “induce regulatory T cells”. In [10], the “Serum conc.” value was 17 ng/mL. Also, the oral bioavailability in data set [11] is reported as greater than 90%.
